Columns and labels:
[1] = associated with a 1000-mg calcium intake increase; women of various ages; estimate; cited from earlier work
[2] = double blind three-week study of calcium retention and absorption, inulin delivered in a RTE cereal (mass balance, stable isotope enrichment); assay type: in vivo, human; conditions: adolescent girls, ages 11-13, roughly 1600 mg calcium per day and 9 grams of inulin, three weeks
Experimental: In one double blind study ranging over a period of three weeks, a number of adolescent girls, ages 11-13, were provided with a diet containing roughly 1600 mg/calcium per day and 9 grams of inulin. The diet was delivered as part of a RTE cereal and the amount of calcium retention and absorption was measured by mass balance and stable isotope enrichment. Stool and urine samples were collected and analyzed for calcium excretion by atomic absorption spectrometry. Calcium retention was calculated as: Diet Ca−urine Ca−fecal Ca. Blood samples were also taken at prescribed intervals and serum and urine were analyzed for Ca by plasma mass spectrometry. The results of the analysis provided that inulin had no effect on the retention or absorption of calcium by subjects in this particular demographic.

[3] = calcium absorbed and retained in postmenopausal women versus placebo; assay type: in vivo, human; conditions: inulin in a food product
From the text: It is believed that food products prepared in accordance with the present invention, would however provide an enhanced benefit to certain selected demographic sections of the population, namely postmenopausal women.

Row | Compound | decrease in mean body weight [1] | effect on absorption of calcium [2] | effect on retention of calcium [2] | level of calcium absorbed and retained versus placebo [3]
1 | [Ca+2] [calcium] | 8 kg | – | – | –
2 | inulin | – | no effect | no effect | higher
